In PubChem BioAssay AID328 (DTP/NCI, 2004):
Several values for one entry are separate records, joined by “and”; a condition that tells them apart may be missing. Equal entries are not always repeated. Toxic doses and inconclusive results are not listed.

System: BDF1 mice, P388 leukemia ip, median survival T/C
Experiment: NCI In Vivo Anticancer Drug Screen. Data for tumor model P388 Leukemia (intraperitoneal) in B6D2F1 (BDF1) mice
Conditions: endpoint: median survival time, higher = longer survival
Procedure, shortened: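 Steps: implant the tumour, treat one group with compound and another with vehicle, record survival, then divide treated by control.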

[1] = dose: 100.0 mg/kg/injection, schedule: Q01DX001 (ip), vehicle: Klucel (hydroxypropylcellulose) (HPC)
[2] = dose: 200.0 mg/kg/injection, schedule: Q01DX001 (ip), vehicle: Klucel (hydroxypropylcellulose) (HPC)
[3] = dose: 400.0 mg/kg/injection, schedule: Q01DX001 (ip), vehicle: Klucel (hydroxypropylcellulose) (HPC)
[4] = dose: 50.0 mg/kg/injection, schedule: Q04DX003 (ip), vehicle: saline with Tween-80
[5] = dose: 100.0 mg/kg/injection, schedule: Q04DX003 (ip), vehicle: saline with Tween-80
[6] = dose: 200.0 mg/kg/injection, schedule: Q04DX003 (ip), vehicle: saline with Tween-80
[7] = dose: 100.0 mg/kg/injection, schedule: Q01DX009 (ip), vehicle: saline with Tween-80
[8] = dose: 200.0 mg/kg/injection, schedule: Q01DX009 (ip), vehicle: saline with Tween-80
[9] = dose: 50.0 mg/kg/injection, schedule: Q01DX009 (ip), vehicle: saline with Tween-80
[10] = dose: 100.0 mg/kg/injection, schedule: Q01DX009 (ip), vehicle: Klucel (hydroxypropylcellulose) (HPC)
[11] = dose: 100.0 mg/kg/injection, schedule: Q04DX003 (ip), vehicle: Klucel (hydroxypropylcellulose) (HPC)
[12] = dose: 200.0 mg/kg/injection, schedule: Q01DX009 (ip), vehicle: Klucel (hydroxypropylcellulose) (HPC)
[13] = dose: 200.0 mg/kg/injection, schedule: Q04DX003 (ip), vehicle: Klucel (hydroxypropylcellulose) (HPC)
[14] = dose: 400.0 mg/kg/injection, schedule: Q01DX009 (ip), vehicle: Klucel (hydroxypropylcellulose) (HPC)
[15] = dose: 400.0 mg/kg/injection, schedule: Q04DX003 (ip), vehicle: Klucel (hydroxypropylcellulose) (HPC)

CNNCc1ccc(C(=O)NC(C)C)cc1
T/C (dose: 37.5 mg/kg/injection, schedule: Q01DX010 (ip), vehicle: saline): 100 % of control
T/C (dose: 100.0 mg/kg/injection, schedule: Q01DX009 (ip), vehicle: saline): 112 % of control and 116 % of control
T/C (dose: 120.0 mg/kg/injection, schedule: Q01DX009 (ip), vehicle: saline): 106 % of control
T/C (dose: 125.0 mg/kg/injection, schedule: Q01DX009 (ip), vehicle: saline): 123 % of control
T/C (dose: 225.0 mg/kg/injection, schedule: Q01DX009 (ip), vehicle: saline): 180 % of control
T/C (dose: 250.0 mg/kg/injection, schedule: Q01DX009 (ip), vehicle: saline): 161 % of control
T/C (dose: 400.0 mg/kg/injection, schedule: Q01DX001 (ip), vehicle: saline): 109 % of control

CCCCCCCCCCCCSSC(=S)OC(C)C
T/C (dose: 50.0 mg/kg/injection, schedule: Q01DX009 (ip), vehicle: other): 106 % of control
T/C (dose: 100.0 mg/kg/injection, schedule: Q01DX009 (ip), vehicle: other): 124 % of control

C=C(C)C12OC3(c4ccccc4)OC1C1C4OC4(CO)C(O)C4(O)C(=O)C(C)=CC4C1(O3)C(C)C2O (stereo unspecified)
T/C (dose: 25.0 micrograms/kg/injection, schedule: Q01DX009 (ip), vehicle: saline + alcohol): 95 % of control and 102 % of control
T/C (dose: 50.0 micrograms/kg/injection, schedule: Q01DX009 (ip), vehicle: saline + alcohol): 93 % of control
T/C (dose: 100.0 micrograms/kg/injection, schedule: Q01DX009 (ip), vehicle: saline + alcohol): 107 % of control
T/C (dose: 200.0 micrograms/kg/injection, schedule: Q01DX009 (ip), vehicle: saline + alcohol): 103 % of control and 110 % of control
T/C (dose: 800.0 micrograms/kg/injection, schedule: Q01DX009 (ip), vehicle: saline + alcohol): 116 % of control
T/C (dose: 1600.0 micrograms/kg/injection, schedule: Q01DX009 (ip), vehicle: saline + alcohol): 106 % of control

CC[P+](CC)(CC)CCCCI
T/C (dose: 6.25 mg/kg/injection, schedule: Q01DX009 (ip), vehicle: saline): 120 % of control
T/C (dose: 12.5 mg/kg/injection, schedule: Q01DX009 (ip), vehicle: saline): 123 % of control
T/C (dose: 25.0 mg/kg/injection, schedule: Q01DX009 (ip), vehicle: saline): 108 % of control and 120 % of control
T/C (dose: 50.0 mg/kg/injection, schedule: Q01DX009 (ip), vehicle: saline): 99 % of control

CC(=O)O[C@@H]1c2c(c3c(=O)c4cccc(O)c4c(=O)c=3c2=[N+]=[N-])[C@H](OC(C)=O)[C@@H](OC(C)=O)[C@]1(C)O
T/C (dose: 3.0 mg/kg/injection, schedule: Q01DX009 (ip), vehicle: Klucel (hydroxypropylcellulose) (HPC)): 118 % of control
T/C (dose: 6.0 mg/kg/injection, schedule: Q01DX009 (ip), vehicle: Klucel (hydroxypropylcellulose) (HPC)): 105 % of control

O=P1(N(CCCl)CCCl)NC(OOC2CCOP(=O)(N(CCCl)CCCl)N2)CCO1 (stereo unspecified)
T/C (dose: 50.0 mg/kg/injection, schedule: Q01DX001 (ip), vehicle: Klucel (hydroxypropylcellulose) (HPC)): 200 % of control
T/C [1]: 236 % of control
T/C [2]: 272 % of control
T/C [3]: 273 % of control

CC(=O)N1CCc2nc3ccccc3cc21
T/C (dose: 24.75 mg/kg/injection, schedule: Q01DX009 (ip), vehicle: Klucel (hydroxypropylcellulose) (HPC)): 123 % of control
T/C (dose: 25.0 mg/kg/injection, schedule: Q01DX009 (ip), vehicle: Klucel (hydroxypropylcellulose) (HPC)): 105 % of control
T/C (dose: 37.5 mg/kg/injection, schedule: Q01DX009 (ip), vehicle: Klucel (hydroxypropylcellulose) (HPC)): 104 % of control and 105 % of control
T/C (dose: 56.25 mg/kg/injection, schedule: Q01DX009 (ip), vehicle: Klucel (hydroxypropylcellulose) (HPC)): 104 % of control and 110 % of control

COc1cc(C(=O)C=C(C(F)(F)F)C(F)(F)F)cc(OC)c1OC
T/C [4]: 120 % of control
T/C [5]: 120 % of control
T/C [6]: 100 % of control

Cc1cccc2c1CC(C(C)C)C2 (stereo unspecified)
T/C [7]: 123 % of control
T/C [8]: 103 % of control

NC1CC2C=CCC(C1)C2 (stereo unspecified)
T/C (dose: 37.5 mg/kg/injection, schedule: Q01DX001 (ip), vehicle: saline): 95 % of control
T/C (dose: 75.0 mg/kg/injection, schedule: Q01DX001 (ip), vehicle: saline): 100 % of control
T/C (dose: 150.0 mg/kg/injection, schedule: Q01DX001 (ip), vehicle: saline): 100 % of control

O=S(=O)(CCl)OCCCCOS(=O)(=O)CCl
T/C (dose: 66.0 mg/kg/injection, schedule: Q01DX009 (ip), vehicle: saline): 104 % of control

OCC1OC(n2cc(Cl)c3cncnc32)C(O)C1O (stereo unspecified)
T/C (dose: 50.0 mg/kg/injection, schedule: Q04DX003 (ip), vehicle: saline): 100 % of control
T/C (dose: 100.0 mg/kg/injection, schedule: Q04DX003 (ip), vehicle: saline): 90 % of control

O=C/C=C/c1cccc([N+](=O)[O-])c1
T/C (dose: 25.0 mg/kg/injection, schedule: Q01DX009 (ip), vehicle: saline with Tween-80): 110 % of control
T/C [9]: 115 % of control
T/C [7]: 119 % of control

CNC1=C(N2CC2)C(=O)C(NC)=C(N2CC2)C1=O
T/C (dose: 0.05 mg/kg/injection, schedule: Q01DX009 (ip), vehicle: saline): 159 % of control
T/C (dose: 0.1 mg/kg/injection, schedule: Q01DX009 (ip), vehicle: saline): 151 % of control and 169 % of control
T/C (dose: 0.2 mg/kg/injection, schedule: Q01DX009 (ip), vehicle: saline): 195 % of control

CCOC12c3c4cccc3C(=O)c3cccc(c31)C(=O)c1cccc(c12)C4=O
T/C [1]: 95 % of control
T/C [10]: 100 % of control
T/C [11]: 100 % of control
T/C [2]: 100 % of control
T/C [12]: 100 % of control
T/C [13]: 100 % of control
T/C [3]: 109 % of control
T/C [14]: 90 % of control
T/C [15]: 91 % of control

COc1ccc(C[n+]2cc([O-])on2)cc1
T/C (dose: 25.0 mg/kg/injection, schedule: Q04DX003 (ip), vehicle: saline with Tween-80): 100 % of control
T/C [4]: 100 % of control
T/C [5]: 109 % of control and 113 % of control
T/C [6]: 113 % of control

CC1(CCBr)NC(=O)NC1=O (stereo unspecified)
T/C [10]: 110 % of control
T/C [11]: 100 % of control
T/C [12]: 105 % of control
T/C [13]: 115 % of control
T/C [14]: 105 % of control
T/C [15]: 100 % of control

NC(=O)C1(NC2CCCCC2)CCN(Cc2ccccc2)CC1
T/C (dose: 50.0 mg/kg/injection, schedule: Q01DX009 (ip), vehicle: gum acacia): 107 % of control
T/C (dose: 50.0 mg/kg/injection, schedule: Q04DX003 (ip), vehicle: gum acacia): 100 % of control
T/C (dose: 100.0 mg/kg/injection, schedule: Q01DX009 (ip), vehicle: gum acacia): 107 % of control
T/C (dose: 100.0 mg/kg/injection, schedule: Q04DX003 (ip), vehicle: gum acacia): 91 % of control

Brc1csc2ncccc12
T/C [11]: 90 % of control
T/C [13]: 109 % of control

CCSc1ncc2cnccn12
T/C (dose: 0.37 mg/kg/injection, schedule: Q01DX009 (ip), vehicle: water): 108 % of control
T/C (dose: 0.75 mg/kg/injection, schedule: Q01DX009 (ip), vehicle: water): 111 % of control and 112 % of control
T/C (dose: 1.0 mg/kg/injection, schedule: Q01DX009 (ip), vehicle: water): 102 % of control
T/C (dose: 1.5 mg/kg/injection, schedule: Q01DX009 (ip), vehicle: water): 112 % of control and 117 % of control and 120 % of control
T/C (dose: 2.0 mg/kg/injection, schedule: Q01DX009 (ip), vehicle: water): 94 % of control and 105 % of control
T/C (dose: 3.12 mg/kg/injection, schedule: Q04DX003 (ip), vehicle: water): 100 % of control
T/C (dose: 4.0 mg/kg/injection, schedule: Q01DX009 (ip), vehicle: water): 94 % of control and 100 % of control
T/C (dose: 5.0 mg/kg/injection, schedule: Q01DX009 (ip), vehicle: water): 91 % of control
T/C (dose: 6.0 mg/kg/injection, schedule: Q01DX009 (ip), vehicle: water): 88 % of control and 104 % of control
T/C (dose: 6.25 mg/kg/injection, schedule: Q04DX003 (ip), vehicle: water): 100 % of control
T/C (dose: 12.5 mg/kg/injection, schedule: Q04DX003 (ip), vehicle: water): 102 % of control
T/C (dose: 16.0 mg/kg/injection, schedule: Q01DX009 (ip), vehicle: water): 89 % of control

CNC(=O)c1ccccc1Sc1ccccc1
T/C [9]: 104 % of control
T/C [7]: 98 % of control
T/C [8]: 106 % of control

CCOC(=O)/C(C#N)=C/N(C)Cc1ccccc1
T/C [9]: 108 % of control
T/C [7]: 105 % of control

COc1ccc(CCn2nnc3ccccc3c2=O)cc1OC
T/C [9]: 98 % of control
T/C [7]: 99 % of control
T/C [8]: 105 % of control
